Experimental findings from patent publication US20140045776A1, “METHOD FOR INCREASING THE SHELF LIFE OF FOOD PRODUCTS” (GALACTIC S.A., priority 2011, published 2014) are described below.

In the assay the test system is aerobic bacteria. The assay is described as follows: Shelf life of minced meat stored at 4° C. (total number of aerobic bacteria). It counts as cell-based. The method, then: The usual formulation of a minced meat was prepared with the following ingredients:
Preservatives were added to this basic formulation, the maximum percentage being 4% (of a fermentate having a main-salt concentration of 40%) compared with the whole of the meat-based food product.
The minced meats are prepared according to the following procedure:
a) Preparing of the meat: the meat and fat are cut into small pieces and minced using a mincer having a 4 mm mincing grille. The meat, fat and other ingredients are then disposed by means of a mixer of the Kenwood type having a type K stirring blade. Operate the stirring for 30 seconds (minimum power).
b) Sampling: the product thus obtained is divided into 100 g samples and placed in plastic bags.
c) Storage: the products obtained are packaged in stretch film and stored at a temperature of 4° C.±1° C. for 10 days.
Twice a week, the pH, the activity of the water (Aw) and total number of aerobic bacteria were evaluated on the samples.
The shelf life of the product prepared without a preservative (reference) was compared with that of the product containing standard potassium lactate—Galoflow PL (Galactic SA) and that of the product containing the fermentate obtained by sugar fermentation by Bacillus coagulans spp. […] The results are set out in graph 1. […]

As for `CC(O)C(=O)[O-].[K+]` (centres unmarked) [potassium lactate], the “preservative effect on the meat matrix” value (Example 2, minced meat, each at a concentration not impacting on the taste (0.05% potassium acetate, 2% potassium lactate), graph 2) is recorded as “preservative effect superior to that of potassium acetate”. Also, under “Example 3, minced meat, potassium lactate with main-salt concentration 60% at various concentrations, 4° C., graph 3”, the “effect on shelf life of the product” value was “increases the shelf life of the product”.
